IC50 data for three compounds are collected here from ChEMBL document CHEMBL3853303, “Nazumazoles D-F, Cyclic Pentapeptides That Inhibit Chymotrypsin, from the Marine Sponge Theonella swinhoei” (J Nat Prod, 2016).

This assay can be described thus: Inhibition of bovine alpha-chymotrypsin using Suc-Leu-Leu-Val-Tyr 4-methylcoumaryl-7-amide as substrate assessed as formation of MCA after 1 hr by fluorometric method. The arrangement: species or system Bos taurus.
By IC50 is commonly meant the midpoint of a concentration-inhibition curve. Regarding `CC(C)C[C@@H]1NC(=O)[C@@H]2C[C@H](C)CN2C(=O)[C@@H](NC=O)CNC(=O)[C@@H](CO)NC(=O)c2coc(n2)[C@H](C)NC(=O)C1=O`, the IC50 came out at 10 µM.

For the compound `CCC[C@@H]1NC(=O)[C@@H]2C[C@H](C)CN2C(=O)[C@@H](NC=O)CNC(=O)[C@@H](CO)NC(=O)c2coc(n2)[C@H](C)NC(=O)C1=O`, the IC50 turned out to be 3 µM.

For `CCC[C@@H]1NC(=O)[C@@H]2C[C@H](C)CN2C(=O)[C@@H](NC=O)CNC(=O)[C@@H](CC)NC(=O)c2coc(n2)[C@H](C)NC(=O)C1=O`, the IC50 was determined as 2 µM.
